# According to publication PMC5853558, “De novo identification of lipid II binding lipopeptides with antibacterial activity against vancomycin-resistant bacteria” (Chemical Science, 2017):
# *1 amine or outer side, *2 acyl side, *3 side chain or, on linkers, in order; H or OH if unused. Where a SMILES comes first, the peptide text is derived from it. Bridges are numbered along the chain shown (N, C = ends). [ ]: non-standard residue; d: D form. The star is where a group is joined. TBMB = c1c(C[*:1])cc(C[*:3])cc1C[*:2]; NHDecyl = CCCCCCCCCCN*
# Legend:
# [1] = system: E. faecium (VRE155); experiment: microbe, parasite or virus in culture; type: cell-based, Enterococcus faecium
# In short: (§1)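 TSB microdilution MIC. Top final peptide 512 µg/ml, lipopeptides 64 µg/ml, DMSO 2%; cells grown to OD600 0.5, suspension at 1 x 10^6 CFU/ml added 1:1; shaken 250 rpm at strain's optimal temperature; DMSO-only control per strain.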
# [2] = system: E. faecium (E980); experiment: microbe, parasite or virus in culture; type: cell-based, Enterococcus faecium
# In short: as §1
# [3] = system: E. faecium (VRE7391); experiment: microbe, parasite or virus in culture; type: cell-based, Enterococcus faecium
# In short: as §1
# [4] = system: E. faecium (VRE2297); experiment: microbe, parasite or virus in culture; type: cell-based, Enterococcus faecium
# In short: as §1
# [5] = system: E. faecium (VRE0321); experiment: microbe, parasite or virus in culture; type: cell-based, Enterococcus faecium
# In short: as §1
# [6] = system: lipid II; experiment: Lipid II antagonization assay; type: cell-based, M. luteus; design: key to Result with antagonist Lipid II: +: antagonization of antibiotic activity; -: no antagonization of antibiotic activity; conditions: for Result with antagonist Lipid II: Supplemental table S10, peptide at 4x MIC, antagonist at 4 molar equivalents, M. luteus 1 x 10^6 CFU/ml, 16 h at 30°C, growth observed visually; for Effect of pre-incubation with lipid II on antibacterial activity: premixed with an excess of lipid II before addition of a live culture of M. luteus
# Experimental: (§2) To assess the role of lipid II in the mode of action of the lipopeptides a lipid II antagonization assay was employed.[18],[33] This assay was performed by premixing P8-D-C10 or the optimized P8-D-(S6R, R15A)-C10 with an excess of lipid II prior to addition of a live culture of M. luteus. […] To probe the stereochemical aspects of lipid II recognition by the optimized P8-D-(S6R, R15A)-C10 lipopeptide we also prepared and tested the corresponding enantiomeric L-peptide species P8-L-(S6R, R15A)-C10. […] Given that lipid II is a chiral biomolecule we had expected the enantiomeric lipopeptides to have different activities based on the assumption that they would interact differently with lipid II. To further investigate this phenomenon we employed the same lipid II antagonization assay described above. […] To explain this observation we hypothesize that the two enantiomeric peptides interact primarily with the pyrophosphate moiety of lipid II and are therefore less influenced by the chiral elements present elsewhere in the lipid II molecule. The pyrophosphate group is known to be a binding site for many natural occurring lipid II binding peptides.[15],[16] […] To test the hypothesis that both the P8-D-(S6R, R15A)-C10 and P8-L-(S6R, R15A)-C10 lipopeptides interact with the pyrophosphate moiety we performed an additional antagonizaiton experiment using C55-PP.
# (§3) Section 4 Biological and biochemical experiments
# (§4) 4.1 Minimum inhibitory concentration assay
# (§5) MIC values were determined by using the broth microdilution method. Peptides were dissolved first in DMSO and diluted with broth so that the final peptide concentration was 1024 µg/ml and the DMSO concentration was 4%. Peptide serial dilutions were made in TSB in a polypropylene 96-wells plate using 50 µl volumes. An overnight culture of the organism of interest was diluted to and OD600 of 0.01 and grown until they reach 0.5. The culture was then diluted to 1 x 10^6 CFU/ml and 50 µl of this suspension was added to each well. The highest concentrations were then 512 µg/ml peptide and 2% DMSO. The plates were incubated at the preferred growth temperature of the organism that was used and 250 rpm. […] When […]
# (§6) determining the MICs of the lipidated peptides, the lipopeptides were first dissolved in DMSO and diluted with TSB so that the peptide concentration was 128 µg/ml and the DMSO concentration was 4%. After inoculation the highest peptide concentration evaluated was 64 µg/ml and the DMSO concentration was 2%. A DMSO control was tested for each strain to ensure the DMSO did not affect the growth of the particular strain. […]
# (§7) 4.4 Antagonization assays
# (§8) Stock solutions of each peptide antibiotic were prepared so that their final concentration in the assay would be 4x MIC. Peptides were transferred to a 96 wells plate and lipid II or C15-P (farnesyl-phosphate) was added at 4 molar equivalents in a final volume of 50 µl. Each well received 50 µl of bacterial suspension (M. luteus) at 1 x 10^6 CFU/ml and the plates were incubated for 16 h at 250 rpm and 30°C. Growth was observed visually (see supplemental table S10 for results).
# [7] = system: C55-PP; experiment: Antagonization assay with C55-PP; type: cell-based, M. luteus; design: key to Result with antagonist C55-PP: +: antagonization of antibiotic activity; -: no antagonization of antibiotic activity; conditions: for Result with antagonist C55-PP: Supplemental table S10, peptide at 4x MIC, M. luteus, 16 h at 30°C, growth observed visually; for Effect of adding C55-PP on antibiotic activity: antagonization experiment using C55-PP
# Experimental: as §2, §3, §4, §5, §6, §7, §8
# [8] = system: S. epidermidis (1587); experiment: microbe, parasite or virus in culture; type: cell-based
# In short: as §1
# [9] = system: S. pyogenes (5448); experiment: microbe, parasite or virus in culture; type: cell-based
# In short: as §1
# [10] = system: B. subtilis (168); experiment: microbe, parasite or virus in culture; type: cell-based
# In short: as §1
# [11] = system: C15-P (farnesyl-phosphate); experiment: Antagonization assay with C15-P (negative control); type: cell-based; design: key: +: antagonization of antibiotic activity; -: no antagonization of antibiotic activity; conditions: Supplemental table S10, peptide at 4x MIC, 4 molar equivalents, M. luteus, 16 h at 30°C, growth observed visually
# Experimental: as §3, §4, §5, §6, §7, §8
# Supplemental table S10. Lipid II antagonization assay results
# Result with indicated antagonista
# Antibiotic compound Lipid II C55-PP C15-Pb […]
# a + = antagonization of antibiotic activity; - = no antagonization of antibiotic activity; b C -P was used as a negative […]
# control (C15-P is a watersoluble analogue of the lipid II precursor undecaprenol phosphate).
# 4.6 Scanning Electron Microscopy
# E. faecium E155 was inoculated at an OD600nm of 0.05 into 300 µL of cation adjusted TSB containing P8-D-(S6R, R15A)-C10 or nisin at (both a 2x MIC) along with 1% glucose and 1%
# DMSO. An untreated culture was used as control. Following overnight incubation (ca. 16 hr) bacterial cells were fixed for 15 minutes with 1% (v/v) glutaraldehyde in phosphate buffered saline (PBS) at room temperature on poly-L-lysine covered glass slides (12 mm diameter). […]
# [12] = Supplemental table S9, vancomycin-resistant isolate, MIC values of Table 2 expressed in µM
# [13] = Table 2, vancomycin-resistant isolate from hospitalized patients, broth microdilution in TSB, 16 h, highest tested 64 µg/ml
# [14] = Supplemental table S9, MIC values of Table 2 expressed in µM
# [15] = Table 2, broth microdilution in TSB, 16 h, read visually, highest tested 64 µg/ml
SMILES,"MIC E. faecium (VRE155) [1, 12] [µM]","MIC E. faecium (VRE155) [1, 13] [μg mL^–1]","MIC E. faecium (E980) [2, 14] [µM]","MIC E. faecium (E980) [2, 15] [μg mL^–1]","MIC E. faecium (VRE7391) [3, 12] [µM]","MIC E. faecium (VRE7391) [3, 13] [μg mL^–1]","MIC E. faecium (VRE2297) [4, 12] [µM]","MIC E. faecium (VRE2297) [4, 13] [μg mL^–1]","MIC E. faecium (VRE0321) [5, 12] [µM]","MIC E. faecium (VRE0321) [5, 13] [μg mL^–1]",Result with antagonist Lipid II [6],Effect of pre-incubation with lipid II on antibacterial activity [6],Result with antagonist C55-PP [7],Effect of adding C55-PP on antibiotic activity [7],"MIC S. epidermidis (1587) [8, 14] [µM]","MIC S. epidermidis (1587) [8, 15] [μg mL^–1]","MIC S. pyogenes (5448) [9, 15]","MIC B. subtilis (168) [10, 14] [µM]","MIC B. subtilis (168) [10, 15] [μg mL^–1]",Result with antagonist C15-P [11],also measured
"CCCCCCCCCCNC(=O)CNC(=O)[C@H]1CSCc2cc3cc(c2)CSC[C@@H](NC(=O)[C@@H](CC(C)C)NC(=O)[C@@H](CC(C)C)NC(=O)[C@@H](CCCNC(=N)N)NC(=O)[C@@H](CCC(N)=O)NC(=O)[C@@H](CC(C)C)NC(=O)[C@@H](CC(C)C)NC(=O)[C@H](NC(=O)[C@@H](C)N)CSC3)C(=O)N2CCC[C@@H]2C(=O)N[C@H](Cc2ccc(O)cc2)C(=O)N[C@H](CO)C(=O)N[C@H]([C@H](C)O)C(=O)N[C@H](Cc2c[nH]cn2)C(=O)N[C@H](C)C(=O)N1 [P8-D-(S6R, R15A)-C10] (H-[dA][dC][dL][dL][dQ][dR][dL][dL][dC][dP][dY][dS][dT][dH][dA][dC]G-NHDecyl; linker 2-9-16 via TBMB; N-terminus assumed)",7.6,8,30.5,32,15.2,16,15.2,16,7.6,8,+,antagonization of antibacterial activity,+,complete loss of antibiotic activity,60.9,64,8–16 μg mL^–1,7.6,8,-,
"CCCCCCCCCCNC(=O)CNC(=O)[C@@H]1CSCc2cc3cc(c2)CSC[C@H](NC(=O)[C@H](CC(C)C)NC(=O)[C@H](CC(C)C)NC(=O)[C@H](CCCNC(=N)N)NC(=O)[C@H](CCC(N)=O)NC(=O)[C@H](CC(C)C)NC(=O)[C@H](CC(C)C)NC(=O)[C@@H](NC(=O)[C@H](C)N)CSC3)C(=O)N2CCC[C@H]2C(=O)N[C@@H](Cc2ccc(O)cc2)C(=O)N[C@@H](CO)C(=O)N[C@@H]([C@@H](C)O)C(=O)N[C@@H](Cc2c[nH]cn2)C(=O)N[C@@H](C)C(=O)N1 [P8-L-(S6R, R15A)-C10] (H-ACLLQRLLCPYSTHACG-NHDecyl; linker 2-9-16 via TBMB; N-terminus assumed)",7.6,8,30.5,32,15.2,16,15.2,16,7.6,8,+,effectively antagonized,+,complete loss of antibiotic activity,30.5,32,8 μg mL^–1,7.6,8,-,"MIC S. pyogenes (5448) [9, 14]: 7.6 µM"
